# Source: patent US20230273203A1, “METHOD FOR DETERMINING FORMULATION OF COMBINATION CONSISTING OF MULTIPLE CANDIDATE SUBSTRATES OF SMELL, TASTE, OR SOMATIC SENSATION AND REPRODUCING SMELL, TASTE, OR SOMATIC SENSATION OF TARGET SUBSTANCE” (Japan Tobacco Inc., priority 2020, published 2023)
# Tests used:
# OR9 = test: Olfactory receptor response measurement, CRE-luciferase reporter in HEK-Olf cells; assay type: cell-based, human; settings: ◯ = receptor responds to the fragrance; luminescence after 3 hours
# OR3 = test: as above; assay type: cell-based, human; settings: ◯ = receptor responds to the fragrance; luminescence after 3 hours
# OR7 = test: as above; assay type: cell-based, human; settings: ◯ = receptor responds to the fragrance; luminescence after 3 hours
# OR10 = test: as above; assay type: cell-based, human; settings: ◯ = receptor responds to the fragrance; luminescence after 3 hours
# Text: (§1) An olfactory receptor gene library (pFN21KSPc HaloTag-OR) prepared by inserting 351 human olfactory receptor genes obtained from a human cDNA library into the pFN21KSPc HaloTag vector was purchased from Kazusa Genome Technologies. Of the 351 types, olfactory receptors OR1A1, OR2B11, and the like were polymorphisms known to show low responses to known agonists, such that the olfactory receptors were modified into polymorphisms with high responsiveness for use in the subsequent test (Joel D. Mainland, et al., Nat Neurosci. 2014; 17(1): p. 114-120).
# The cell line HEK-Olf obtained in Example 1 was prepared in DMEM medium (Thermo Fisher) and then seeded in a 96-well plate (Corning) at 1×10^4 cells/well. Subsequently, pFN21KSPc HaloTag-OR and pGL4.29[luc2P/CRE/Hygro] […]
# (§2) Each olfactory receptor expressing HEK-Olf obtained above was cultured for 24 hours at 37° C. under 5% CO2; then the medium was removed, and test compounds (candidate substances) prepared appropriately in DMEM medium were added in 50 μL aliquots. […] After 3 hours of reaction at 37° C. under 5% CO2, responses of the olfactory receptors were obtained by luminescence measurement using ONE-Glo (trademark) Luciferase Assay kit (Promega).
# (§3) The response intensity R of an olfactory receptor at each concentration was calculated using the luminescence intensity (RLU) obtained in the measurement, based on formula (6) below: […]
# OR8 = test: as above; assay type: cell-based, human; settings: ◯ = receptor responds to the fragrance; luminescence after 3 hours
# OR6 = test: as above; assay type: cell-based, human; settings: ◯ = receptor responds to the fragrance; luminescence after 3 hours
# Text: as §1
# (§4) The cell line HEK-Olf obtained in Example 1 was prepared in DMEM medium (Thermo Fisher) and then seeded in a 96-well plate (Corning) at 1×10^4 cells/well. Subsequently, pFN21KSPc HaloTag-OR and pGL4.29[luc2P/CRE/Hygro] Vector (Promega) were introduced into the HEK-Olf with ViaFect (trademark) Transfection Reagent (Promega). At this time, pFN21KSPc HaloTag-OR and pGL4.29[luc2P/CRE/Hygro] Vector were prepared to give 70 ng/well and 30 ng/well, respectively. Using each olfactory receptor expressing HEK-Olf thus constructed, measurement of responses of the olfactory receptors was performed as follows.
# (§5) Each olfactory receptor expressing HEK-Olf obtained above was cultured for 24 hours at 37° C. under 5% CO2; then the medium was removed, and test compounds (candidate substances) prepared appropriately in DMEM medium were added in 50 μL aliquots. DMEM medium containing no test compound was added to negative control wells, and forskolin adjusted to 3 μM was added to positive control wells. After 3 hours of reaction at 37° C. under 5% CO2, responses of the olfactory receptors were obtained by luminescence measurement using ONE-Glo (trademark) Luciferase Assay kit (Promega).
# as §3
# (§6) Furthermore, using the curve fitting software XLFit (IDBS), the maximum response intensity and EC50 of the dose response curve were derived.
# OR1 = test: as above; assay type: cell-based, human; settings: ◯ = receptor responds to the fragrance; luminescence after 3 hours
# Text: as §1, §4, §5, §3, §6
# OR2 = test: as above; assay type: cell-based, human; settings: ◯ = receptor responds to the fragrance; luminescence after 3 hours
# Text: as §1, §4, §5, §3, §6
# OR5 = test: as above; assay type: cell-based, human; settings: ◯ = receptor responds to the fragrance; luminescence after 3 hours
# Text: as §1, §4, §5, §3, §6
# OR4 = test: as above; assay type: cell-based, human; settings: ◯ = receptor responds to the fragrance; luminescence after 3 hours
# Text: as §1, §4, §5, §3, §6
# [1] = Sensory evaluation of similarity in odor quality to coumarin (VAS); assay type: in vivo, human; settings: headspace aroma, panel of five trained experts, samples in propylene glycol at Table 2 concentrations; FIG. 4
# Description: In this example, similarity in odor quality between coumarin and the coumarin reconstitution fragrance obtained in Example 3 was verified by sensory evaluation. In the sensory evaluation, the verification was performed by a panel of five trained experts. The similarity in odor was obtained by evaluating the similarity between the headspace aromas of coumarin presented as a reference and each evaluation sample presented blindly, using a Visual Analog Scale (VAS).
# [2] = test system: 351 human olfactory receptors; test: Response screen of 351 human olfactory receptors; assay type: cell-based; settings: out of 351 human olfactory receptors; all responders class II
# Text: as §1, with “114-120). […]” for “114-120).”
# as §2, §3
# Based on the above-described procedure, 351 human olfactory receptors were measured for responses to coumarin as a fragrance. […]
structure (smiles),measurement,setting,value
"CCCCC(=O)OCC [Ethyl Valerate, ethyl valerate]",response of olfactory receptor OR9 to the fragrance,OR9,◯
"CC(C)[C@@H]1CC[C@@H](C)CC1=O [Menthone, menthone]",response of olfactory receptor OR3 to the fragrance,OR3,◯
"C=C(C)[C@@H]1CCC2=CC(=O)C[C@@H](C)[C@]2(C)C1 [Nootkatone, nootkatone]",response of olfactory receptor OR7 to the fragrance,OR7,◯
same,response of olfactory receptor OR9 to the fragrance,OR9,◯
same,response of olfactory receptor OR10 to the fragrance,OR10,◯
same,response of olfactory receptor OR8 to the fragrance,OR8,◯
"O=Cc1ccc2c(c1)OCO2 [Piperonal, piperonal]",response of olfactory receptor OR6 to the fragrance,OR6,◯
same,response of olfactory receptor OR1 to the fragrance,OR1,◯
same,response of olfactory receptor OR2 to the fragrance,OR2,◯
same,response of olfactory receptor OR5 to the fragrance,OR5,◯
same,response of olfactory receptor OR4 to the fragrance,OR4,◯
same,similarity in odor quality to coumarin (VAS),[1],low similarity
"O=c1ccc2ccccc2o1 [coumarin, reference compound]",number of olfactory receptors showing dose-dependent responses,[2],six
same,response of olfactory receptor OR3 to the fragrance,OR3,confirmed to respond
same,response of olfactory receptor OR6 to the fragrance,OR6,confirmed to respond
same,response of olfactory receptor OR1 to the fragrance,OR1,confirmed to respond
same,response of olfactory receptor OR2 to the fragrance,OR2,confirmed to respond
same,response of olfactory receptor OR5 to the fragrance,OR5,confirmed to respond
same,response of olfactory receptor OR4 to the fragrance,OR4,confirmed to respond
"O=C(O)C=Cc1ccccc1O [o-Hydroxycinnamic Acid, o-hydroxycinnamic acid]",response of olfactory receptor OR7 to the fragrance,OR7,◯
same,response of olfactory receptor OR9 to the fragrance,OR9,◯
same,response of olfactory receptor OR8 to the fragrance,OR8,◯
"CCCC1CCC(=O)O1 (stereo not shown) [γ-Heptalactone, γ-heptalactone]",response of olfactory receptor OR3 to the fragrance,OR3,◯
same,response of olfactory receptor OR1 to the fragrance,OR1,◯
same,response of olfactory receptor OR5 to the fragrance,OR5,◯
